Laboratory results from US12691186B2, “B7-H3 miniproteins, conjugates, and uses thereof” (priority 2023, dated 2026).
Bridges are numbered along the chain shown (N, C = ends). Primed or numbered codes have the meaning given here. Where no end group is shown, it is not given here. [ ]: non-standard residue; d: D form. The star is where a group is joined. DOTA = O=C(O)CN1CCN(CC(=O)O)CCN(CC(=O)*)CCN(CC(=O)O)CC1; Biotin = O=C1N[C@H]2[C@H](CS[C@H]2CCCCC(=O)*)N1; Lys(Me2) = CN(C)CCCC[C@H](N)C(=O)O; PEG4 = NCCOCCOCCOCCOCCC(=O)O; PEG4′ = not defined here

Tests used:
[1] = Thermal stability (Tm) of B7-H3 miniprotein conjugates; format: physicochemical
Procedure: Thermal stability was assessed for several exemplary miniprotein conjugates and reported as Tm (e.g., see Table 7A).
As compared to unconstrained sequences (e.g., as in Table 2A and shown for C211 in Table 7A), those with disulfide bonds (e.g., as in Table 2C and shown for C234, C275, C294, and C309 in Table 7A) were more thermally stable (see Table 7A), and exemplary compounds with two disulfide bridges (C234, C275, and C309) were stable at higher temperatures than an exemplary compound with one disulfide bridge (C294).

[2] = system: opossum kidney proximal tubule cells; test: OK-PTC uptake assay of miniprotein conjugates in presence of scaffold A decoys; format: cell-based; conditions: compound 20 μM; for % Uptake reduction in the presence of a decoy C118: 20-fold molar excess of decoy C118; for % Uptake reduction in the presence of a decoy C119: 20-fold molar excess of decoy C119; for % Uptake reduction in the presence of a decoy C120: 20-fold molar excess of decoy C120
Procedure: This Example describes reduction of uptake of exemplary truncated and constrained B7-H3 miniprotein conjugates (C272, C308, C234, C394, C250, and C228) when combined with exemplary scaffold A decoys (C118, C119 and C120) as compared to no decoy. Uptake of compounds was evaluated in opossum kidney proximal tubule cells (as described in Example 5). Here, cells were treated with a compound in the presence or absence of a 20-fold molar excess of exemplary scaffold A decoys, C118, C119, and C120. Results depicting uptake of six exemplary B7-H3-targeting compounds, C272, C308, C234, C394, C250, and C228, in OK-PTC cells in the presence and absence of exemplary decoys C118, C119, and C120 (scaffold A decoys) are shown in Table 13. The B7-H3-targeting compounds were used at 20 μM and the decoys used at a 20-fold (with C272, C308, C234, C394, and C250) and 10-fold (with C228) molar excess.

[3] = In vitro metabolic stability, kidney brush border membrane preparations (KBBM); format: in vitro ADME; parameters: unit not given here; conditions: mouse kidney brush border membrane preparation, 37° C.
Procedure: (§1) Exemplary miniprotein conjugates were spiked into biological matrices at initial concentration between 1-2 μM. Tested matrices were varied by species (mouse, rat, human) and type (plasma, serum, and kidney brush border membrane preparations tested each from 0.625-100 μg/mL protein content). Tested conditions were incubated with TAs at 37° C. for 4 hours. At collection points of 0, 15, 30, 60, 120, 240 minutes, 50 μL of each condition were quenched by organic solvent (methanol or acetonitrile) or the addition of 4% phosphoric acid solution. Fractions of each quenched timepoint were subsequently assayed for parent TA concentration by high resolution LC-MS. Percent-parent-remaining-time plots were constructed from the ratio of each given time collection to the time-zero parent TA. Percent-parent-remaining in mouse serum and plasma for exemplary miniproteins are recorded in Table 8.

[4] = In vitro metabolic stability, plasma; format: in vitro ADME; parameters: unit not given here; conditions: 37° C.
Procedure: as §1

[5] = system: >6,500 different human proteins; test: Off-target binding, cell microarray platform (Retrogenix Assay) in HEK293 cells; conditions: biotin-labeled molecules
Procedure: To evaluate potential off-target binding, eight biotin-labeled molecules were tested in a cell microarray platform (Charles River Lab, Retrogenix Assay) having >6,500 different human proteins spanning diverse functions and subcellular locations.
Initially, two pools of molecules were tested. Pool #1 consisted of C298, C300, C302, C304, and pool #2 consisted of C306, C308, C310, and C312 at 2 μg/mL for each molecule. To perform this assay, HEK293 cells were plated on a dish and localized spots of cells were transiently over-expressed with a cDNA encoding for one of the >6,500 targets. Included in this library were two isoforms of CD276 (B7-H3) and B7-H3 related proteins (B7-1, B7-2, B7-H1/PD-L1, and B7-H2). The molecule pools were incubated on the fixed, over-expressing cell microarrays (n=2 per protein), and binding was visualized using Alexa Fluor 647 streptavidin fluorescence. All transfection efficiencies exceeded minimum thresholds for the microarray expression targets. Preliminary interactions identified from pooled results were re-spotted in duplicates, and each of the eight compounds were tested individually (n=2) at 2 μg/mL and/or in dose response against these targets as described above to validate the interactions.
All positive control interactions were strong and passed quality control. Specific interactions observed (median SNR≥1) confirmed on-target B7-H3 binding in two different isoforms for each of the eight test molecules. These interactions with the primary target occurred after fixation and in live cells (absence of fixation). No significant additional interactions were confirmed for any test molecules outside of B7-H3, indicating high specificity for the primary target (data not shown).

[6] = In vitro metabolic stability, kidney brush border membrane (KBBM), mouse; format: in vitro ADME; conditions: 37° C.
Description: (§2) This Example describes in vitro metabolic stability of exemplary B7-H3 miniprotein conjugates.
(§3) Pharmacokinetic assessments are described in Example 18.

[7] = In vitro metabolic stability, plasma, mouse; format: in vitro ADME; conditions: 37° C.
Description: as §2, §3

[8] = system: opossum kidney proximal tubule cells; test: Proximal tubule epithelial cell (OK cell) uptake assay relative to control C4; format: cell-based
Procedure: Inhibition constant (Ki) of each conjugate was measured using DELFIA as described herein.

CC[C@H](C)[C@@H]1NC(=O)[C@H](Cc2ccccc2)NC(=O)[C@H](C)NC(=O)[C@H](CCCCN(C)C)NC(=O)[C@H]([C@@H](C)CC)NC(=O)[C@H](CCC(N)=O)NC(=O)[C@H](C)NC(=O)[C@H](Cc2ccc(O)cc2)NC(=O)[C@H]([C@@H](C)O)NC(=O)[C@H](CC(C)C)NC(=O)[C@@H]2CSSC[C@@H](C(=O)N[C@@H](CO)C(N)=O)NC(=O)[C@H](CC(C)C)NC(=O)[C@H](CCC(=O)O)NC(=O)[C@H](CCCCN)NC(=O)[C@H](C)NC(=O)[C@H](CCC(=O)O)NC(=O)[C@H](CO)NC(=O)[C@H](CC(C)C)NC(=O)[C@H]([C@@H](C)CC)NC(=O)[C@H](CCC(=O)O)NC(=O)[C@H](CO)NC(=O)[C@H](CO)NC(=O)[C@H](CCC(N)=O)NC(=O)[C@H](CSSC[C@H](NC(=O)CCOCCOCCOCCOCCNC(=O)CCCC[C@@H]3SC[C@@H]4NC(=O)N[C@@H]43)C(=O)N[C@@H](C)C(=O)N[C@@H](CCCC[N+](C)(C)C)C(=O)N[C@@H](CCC(=O)O)C(=O)N[C@@H](CCCCN)C(=O)N[C@@H]([C@@H](C)CC)C(=O)N[C@@H](C)C(=O)N[C@@H](C)C(=O)N[C@@H](CC(C)C)C(=O)N[C@@H](CO)C(=O)N[C@@H](CCC(=O)O)C(=O)N[C@@H]([C@@H](C)CC)C(=O)N[C@@H]([C@@H](C)CC)C(=O)N[C@@H](Cc3c[nH]c4ccccc34)C(=O)N[C@@H](CC(C)C)C(=O)N3CCC[C@H]3C(=O)N2)NC(=O)[C@@H]2CCCN2C(=O)[C@H](CC(=O)O)NC(=O)[C@H](CC(=O)O)NC(=O)[C@H](CC(N)=O)NC(=O)[C@H](CC(C)C)NC(=O)[C@H](C)NC(=O)[C@H](C)NC1=O [Compound C234]
Tm (° C.) [1]: ~≥75 °C
% Uptake reduction in the presence of a decoy C118 [2]: 86.4%
% Uptake reduction in the presence of a decoy C119 [2]: 96.2%
% Uptake reduction in the presence of a decoy C120 [2]: 96.9%

CC[C@H](C)[C@@H]1NC(=O)[C@H](CCCCN)NC(=O)[C@H](CCC(=O)O)NC(=O)[C@H](CCCC[N+](C)(C)C)NC(=O)[C@H](C)NC(=O)[C@@H](NC(=O)CCOCCOCCOCCOCCNC(=O)CCCC[C@@H]2SC[C@@H]3NC(=O)N[C@@H]32)CSSC[C@@H]2NC(=O)[C@@H]3CCCN3C(=O)[C@H](CC(=O)O)NC(=O)[C@H](CC(=O)O)NC(=O)[C@H](CC(N)=O)NC(=O)[C@H](CC(C)C)NC(=O)[C@H](C)NC(=O)[C@H](CCCCNC)NC(=O)[C@H]([C@@H](C)CC)NC(=O)[C@H](Cc3ccccc3)NC(=O)[C@H](C)NC(=O)[C@H](CCCCNC)NC(=O)[C@H]([C@@H](C)CC)NC(=O)[C@H](CCC(N)=O)NC(=O)[C@H](C)NC(=O)[C@H](Cc3ccc(O)cc3)NC(=O)[C@H]([C@@H](C)O)NC(=O)[C@H](CC(C)C)NC(=O)[C@H](CSSC[C@@H](C(=O)N[C@@H](CO)C(N)=O)NC(=O)[C@H](CC(C)C)NC(=O)[C@H](CCC(=O)O)NC(=O)[C@H](CCCCNC)NC(=O)[C@H](C)NC(=O)[C@H](CCC(=O)O)NC(=O)[C@H](CO)NC(=O)[C@H](CC(C)C)NC(=O)[C@H]([C@@H](C)CC)NC(=O)[C@H](CCC(=O)O)NC(=O)[C@H](CO)NC(=O)[C@H](CO)NC(=O)[C@H](CCC(N)=O)NC2=O)NC(=O)[C@@H]2CCCN2C(=O)[C@H](CC(C)C)NC(=O)[C@H](Cc2c[nH]c3ccccc23)NC(=O)[C@H]([C@@H](C)CC)NC(=O)[C@H]([C@@H](C)CC)NC(=O)[C@H](CCC(=O)O)NC(=O)[C@H](CO)NC(=O)[C@H](CC(C)C)NC(=O)[C@H](C)NC(=O)[C@H](C)NC1=O [Compound C306]
In vitro Stability (mouse) - KBBM [3]: >12
In vitro Stability (mouse) - Plasma [4]: >12
background binding to untransfected HEK293 cells [5]: low-background binding

CC[C@H](C)[C@@H]1NC(=O)[C@H](Cc2ccccc2)NC(=O)[C@H](C)NC(=O)[C@H](CCCCNC)NC(=O)[C@H]([C@@H](C)CC)NC(=O)[C@H](CCC(N)=O)NC(=O)[C@H](C)NC(=O)[C@H](Cc2ccc(O)cc2)NC(=O)[C@H]([C@@H](C)O)NC(=O)[C@H](CC(C)C)NC(=O)[C@@H]2CSSC[C@@H](C(=O)N[C@@H](CO)C(N)=O)NC(=O)[C@H](CC(C)C)NC(=O)[C@H](CCC(=O)O)NC(=O)[C@H](CCCCNC)NC(=O)[C@H](C)NC(=O)[C@H](CCC(=O)O)NC(=O)[C@H](CO)NC(=O)[C@H](CC(C)C)NC(=O)[C@H]([C@@H](C)CC)NC(=O)[C@H](CCC(=O)O)NC(=O)[C@H](CO)NC(=O)[C@H](CO)NC(=O)[C@H](CCC(N)=O)NC(=O)[C@H](CSSC[C@H](NC(=O)CCOCCOCCOCCOCCNC(=O)CCCC[C@@H]3SC[C@@H]4NC(=O)N[C@@H]43)C(=O)N[C@@H](C)C(=O)N[C@@H](CCCC[N+](C)(C)C)C(=O)N[C@@H](CCC(=O)O)C(=O)N[C@@H](CCCCN)C(=O)N[C@@H]([C@@H](C)CC)C(=O)N[C@@H](C)C(=O)N[C@@H](C)C(=O)N[C@@H](CC(C)C)C(=O)N[C@@H](CO)C(=O)N[C@@H](CCC(=O)O)C(=O)N[C@@H]([C@@H](C)CC)C(=O)N[C@@H]([C@@H](C)CC)C(=O)N[C@@H](Cc3c[nH]c4ccccc34)C(=O)N[C@@H](CC(C)C)C(=O)N3CCC[C@H]3C(=O)N2)NC(=O)[C@@H]2CCCN2C(=O)[C@H](CC(=O)O)NC(=O)[C@H](CCCCNC)NC(=O)[C@H](CC(N)=O)NC(=O)[C@H](CC(C)C)NC(=O)[C@H](CCCCNC)NC(=O)[C@H](C)NC1=O [Compound C308]
% Uptake reduction in the presence of a decoy C118 [2]: 107.9%
% Uptake reduction in the presence of a decoy C119 [2]: 108.6%
% Uptake reduction in the presence of a decoy C120 [2]: 104.5%
background binding to untransfected HEK293 cells [5]: low-background binding

C41 ({DOTA-PEG4′}-AEALYAQEKIAALSEIIWLPNLTHGQIMAFIAALNNDPSQSSELLSEAEQLNDSQAPG-OH; also: In complexed by DOTA) [Compound C41]
In vitro Stability (mouse) - KBBM [6]: >12
In vitro Stability (mouse) - Plasma [7]: >12

C44: B7-H3 miniprotein test article of Table 5 ({DOTA-PEG4′}-YAQEKIAALSEIIWLPNLTHGQIMAFIAALNNDPSQSSELLSEALALNDSQAPG; also: In complexed by DOTA) [Compound C44]
In vitro Stability (mouse) - KBBM [6]: >12
In vitro Stability (mouse) - Plasma [7]: >12

{Biotin-PEG4}-CAREKIAALSEIIWLPCLTYAQIKAFIAALNDDPCQSSEILSEAKELCS-NH2 (disulfide 1-35, 17-48) [Compound C284]
% Uptake of C4 [8]: 56.6%

{Biotin-PEG4}-CAREKIAALSEIIWLPCLTYAQILAFIAALNDDPCQSSEILSEAKELCS-NH2 (disulfide 1-35, 17-48) [Compound C286]
% Uptake of C4 [8]: 26%

{Biotin-PEG4}-CAREKIAALSEIIWLPCLTYAQIQAFIAALNDDPCQSSEILSEAKELCS-NH2 (disulfide 1-35, 17-48) [Compound C290]
% Uptake of C4 [8]: 17%

{Biotin-PEG4}-CAREKIAALSEIIWLPCLTYAQIVAFIAALNDDPCQSSEILSEAKELCS-NH2 (disulfide 1-35, 17-48) [Compound C291]
% Uptake of C4 [8]: 30%

{Biotin-PEG4}-CAREKIAALSEIIWLPCLTYAQI[Lys(Me2)]AFIAALNDDPCQSSEILSEAKELCS-NH2 (disulfide 1-35, 17-48) [Compound C275]
Tm (° C.) [1]: ~≥75 °C
% Uptake of C4 [8]: 3%
